Data: patent US20100305174A1, “Novel Heterocyclic Derivatives” (ORCHID RESEARCH LABORATORIES LIMITED, priority 2005, published 2010)
Like-named read-outs stand apart in the source and are kept apart here.

Legend:
HT-29 = assay: Inhibition of colon cancer cell growth (MTS); assay type: cell-based; conditions: 10 μM, six days, MTS viability
Experimental: (§1) HT-29 is a colon cancer cell line and they were grown in 96 well plates with seeding concentration of 1000 cells/well. The cells were pretreated with compounds mentioned in FIG. 3 at 10 μM concentrations or taxol at 1 and 2.5 μM concentration or DMSO for six consecutive days. Every 48 hrs they were stained with MTS dye and viability was checked accordingly.

TNF-α = TNF-α inhibition in LPS-challenged human PBMC; assay type: cell-based; conditions: Homo sapiens, PBMC, LPS 100 ng/mL, 20 hours, read-out: % Inhibition TNF alpha
Experimental: (§2) Human PBMC cells were cultured and incubated with compounds listed in table-4 at 1 and 10 μM concentrations. Cells (1×10^6/mL) were challenged with lipopolysaccharides (LPS) at a concentration of (100 ng/mL) for 20 hours. Cell supernatant was analyzed for the presence of TNF-α, IL-1β and IL-6 cytokines by antibody directed enzyme-linked immunoassay.

DPP IV = biological target: T1, DPP IV (Homo sapiens, UniProt P27487); assay: DPP IV assay (human plasma as source, H-gly-pro AMC substrate); assay type: biochemical; conditions: compared to vehicle control
T1 construct: using human plasma as a source of DPP IV; from tissue; host or cells: human plasma
T1 sequence (P27487 39-766 limits assumed): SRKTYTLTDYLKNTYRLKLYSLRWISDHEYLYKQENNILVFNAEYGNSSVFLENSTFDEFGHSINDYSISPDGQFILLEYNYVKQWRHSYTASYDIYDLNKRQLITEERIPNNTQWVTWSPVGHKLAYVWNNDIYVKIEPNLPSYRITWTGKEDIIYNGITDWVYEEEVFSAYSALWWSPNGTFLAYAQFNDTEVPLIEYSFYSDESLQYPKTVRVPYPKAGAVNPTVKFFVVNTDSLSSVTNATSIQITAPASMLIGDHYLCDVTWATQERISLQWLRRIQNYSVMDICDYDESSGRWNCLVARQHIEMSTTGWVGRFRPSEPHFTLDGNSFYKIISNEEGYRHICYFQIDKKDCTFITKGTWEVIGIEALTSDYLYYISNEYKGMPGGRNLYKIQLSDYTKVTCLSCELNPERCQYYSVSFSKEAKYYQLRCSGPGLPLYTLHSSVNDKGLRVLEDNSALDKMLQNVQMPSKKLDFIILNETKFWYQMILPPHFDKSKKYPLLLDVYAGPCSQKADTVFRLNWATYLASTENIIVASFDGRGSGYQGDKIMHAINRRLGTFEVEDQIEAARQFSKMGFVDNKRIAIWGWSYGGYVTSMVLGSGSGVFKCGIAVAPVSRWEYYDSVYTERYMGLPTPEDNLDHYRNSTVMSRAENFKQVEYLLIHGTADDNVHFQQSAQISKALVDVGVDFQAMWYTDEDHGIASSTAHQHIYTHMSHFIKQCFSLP
Experimental: DPP IV assay is carried by using human plasma as a source of DPP IV. The compounds were incubated at a concentration of 1 and 10 μM in assay buffer containing DPP IV enzyme. The compounds were incubated for 1 hr and then the substrate H-gly-pro AMC was added and further incubated for 20 min and then the reaction was stopped on addition of 25% glacial acetic acid. The plates were read in a spectrofluorimeter to get RFU on setting excitation wavelength of 360 nm and emission wavelength of 460 nm. Percentage inhibition is calculated as compared to vehicle control.

MCF-7 = assay: Inhibition of breast cancer cell growth (MTS); assay type: cell-based; conditions: 10 μM, six days, MTS viability
Experimental: as §1, with “MCF-7” for “HT-29”, “breast” for “colon”, “at” for “with seeding concentration of”, “2” for “3”, “concentration” for “concentrations”

IL-1β = IL-1β inhibition in LPS-challenged human PBMC; assay type: cell-based; conditions: Homo sapiens, PBMC; 10 μM, LPS 100 ng/mL, 20 hours; read-out: % Inhibition IL1beta
Experimental: as §2

3T3-L1 cells = assay: Glucose uptake assay using 3T3-L1 cells; assay type: cell-based; conditions: statement in words, table-1 assay
Experimental: 3T3-L1 cells were differentiated by the addition of differentiation cocktail (72 μg/ml insulin, 0.5 mM IBMX, 400 ng/ml Dexamethasone) for 4 days and later fed with media without differentation cocktail for 7-8 days. After differentiation the cells were incubated with the either reference compound BLX-1002 or compounds listed in the table 1 at 1 μM concentrations for 72 hours and carried out the glucose uptake assay for 10 min by the addition of KRP buffer supplemented with 2.5 μCi/ml ^14C deoxy glucose. Stimulation Index is defined as the amount of ^14C Deoxyglucose uptake induced by 1 μM of BLX-1002 incubated for 72 hrs in an assay condition as per protocol described above with differentiated 3T3-L1 adipocytes. Values of compounds mentioned in table-1 are with reference to stimulation index of reference compound BLX-1002.

3T3-L1 fibroblasts = assay: Adipogenesis assay in 3T3-L1 (Oil-red-O staining); assay type: cell-based
Experimental: All known PPARγ agonists induce differentiation in fibroblast cells. The adipogenic potential of these compounds is correlated with their affinity to this receptor. To check quickly the affinity of compounds to these receptors, 3T3-L1 fibroblasts were treated with either DMSO control or rosiglitazone as positive control or the compounds at 1 μM concentration for several days. On day 13th, the differentiated adipocytes were stained with Oil-red-O (Sigma) and washed thoroughly to remove unbound stain and visualized under Olympus microscope. […] This is an indirect proof that example 78 have no affinity to PPARγ receptor.

[1] = tested on: streptozotocin induced diabetic mice; assay: Antidiabetic activity in streptozotocin induced diabetic mice; assay type: in vivo, Swiss albino mice; conditions: Mus musculus, 168 h, 50 mg/kg oral, 7 days, plasma, compared to control group
Experimental: Swiss albino mice of either sex were used in the study at the age of 10 weeks. Diabetes was induced in animals by injecting streptozotocin by i.p. route at a dose of 200 mg/kg body weight. 48 hours after streptozotocin administration, the animals were kept for fasting for 6 hours and blood was collected and plasma separated and glucose was estimated. Animals showing greater than 200 mg/dl glucose levels were considered as diabetic and these animals were randomly distributed into various groups. The compounds listed in the table 3 were administered at a dose of 50 mg/kg body weight by oral route for 7 days. Later animals were fasted for 6 hours and blood was collected and plasma separated. Biochemical estimations like glucose, cholesterol and triglycerides were carried out using the plasma. The effect of compounds mentioned in the table was expressed in terms of percentage reduction in biochemical values as compared to control group.

In the case of `CN1C(=O)OCC1Cc1ccc(Oc2ccc(/C=C3\C(=O)Nc4ccccc43)cc2C(F)(F)F)cc1` (centres unmarked) [Example 14], the “inhibition of colon cancer cell growth” value (HT-29) is reported as “strong inhibitor”, the inhibition at 1 µM (TNF-α; 1 μM) is reported as 15.9% and the inhibition at 10 µM (TNF-α; 10 μM) is reported as 25.4%. The inhibition at 1 µM (DPP IV; 1 μM) was 4.64%, the inhibition at 10 µM (DPP IV; 10 μM) was 7.42% and the “inhibition of breast cancer cell growth” value (MCF-7) was “strong inhibitor”. The inhibition at 10 µM (IL-1β) was 32.1%.

With `CCN1C(=O)OCC1Cc1ccc(Oc2ccc(CC3SC(=S)NC3=O)cc2)cc1` (centres unmarked) [Example 78, 3-ethyl-4-(4-{4-[(4-oxo-2-thioxo-1,3-thiazolidin-5-yl)methyl]phenoxy}benzyl)-1,3-oxazolidin-2-one] the glucose uptake activity (3T3-L1 cells) was “good glucose uptake activity”, the “adipogenesis (Oil-red-O staining)” value (3T3-L1 fibroblasts; 1 μM, stained on day 13) was “remained unchanged” and the “adipogenesis DRC, Oil-red-O staining” value (3T3-L1 fibroblasts; at tested concentrations) was “did not show significant staining”. The “affinity to PPARγ receptor” value (3T3-L1 fibroblasts; indirect proof from adipogenesis assay) was “no affinity”, the inhibition in vivo at 50 mg/kg ([1]; read-out: % Reduction Cholesterol) was 59% and the inhibition in vivo at 50 mg/kg ([1]; read-out: % Reduction Glucose) was 45.4%. For the same compound, the inhibition in vivo at 50 mg/kg ([1]; read-out: % Reduction Triglycerides) was 44.2%.
